Like-named read-outs stand apart in the source and are kept apart here. Marks after values point to notes of the source that are not given here.
What was measured:
[1] = test system: Botrytis cinerea; assay: In vivo preventive test on Botrytis cinerea (grey mould); conditions: gherkin plants, preventive spray, evaluated 4 to 5 days after inoculation
Experimental: The young plants of gherkin are treated by spraying the active ingredient prepared as described above. Control plants are treated only with an aqueous solution of acetone/Dimethyl sulfoxide/Tween®. After 24 hours, the plants are contaminated by spraying the leaves with an aqueous suspension of Botrytis cinerea spores. The contaminated gherkin plants are incubated for 4 to 5 days at 17° C. and at 90% relative humidity.

[2] = test system: Puccinia recondita; assay: In vivo preventive test on Puccinia recondita (brown rust on wheat); conditions: wheat plants, preventive spray, evaluated 11 days after inoculation
Experimental: (§1) The young plants of wheat are treated by spraying the active ingredient prepared as described above. Control plants are treated only with an aqueous solution of acetone/Dimethyl sulfoxide/Tween®. After 24 hours, the plants are contaminated by spraying the leaves with an aqueous suspension of Puccinia recondita spores.

[3] = test system: Pyricularia oryzae; type: in vivo; conditions: 500 ppm of active ingredient; rice plants, preventive spray; evaluated 6 days after inoculation
[4] = test system: Septoria tritici; assay: In vivo preventive test on Septoria tritici (leaf spot on wheat); conditions: wheat plants, preventive spray, evaluated 24 days after inoculation
Experimental: as §1, with “Septoria tritici” for “Puccinia recondita”

[5] = test system: Sphaerotheca fuliginea; assay: In vivo preventive test on Sphaerotheca fuliginea (powdery mildew on cucurbits); conditions: gherkin plants, preventive spray, evaluated 15 days after inoculation
Experimental: as §1, with “gherkin” for “wheat”, “Sphaerotheca fuliginea” for “Puccinia recondita”

[6] = test system: Uromyces appendiculatus; assay: In vivo preventive test on Uromyces appendiculatus (bean rust); conditions: bean plants, preventive spray, evaluated 11 days after inoculation
Experimental: as §1, with “bean” for “wheat”, “Uromyces appendiculatus” for “Puccinia recondita”

[7] = test system: Blumeria graminis fsp. hordei; assay: Blumeria test (barley)/preventive; type: in vivo; conditions: 500 ppm of active ingredient, preventive, evaluated 7 days after inoculation
Experimental: (§2) Solvent: 49 parts by weight of N,N-dimethylacetamide Emulsifier: 1 part by weight of alkylaryl polyglycol ether To produce a suitable preparation of active compound, 1 part by weight of active compound or active compound combination is mixed with the stated amounts of solvent and emulsifier, and the concentrate is diluted with water to the desired concentration. To test for preventive activity, young plants are sprayed with the preparation of active compound or active compound combination at the stated rate of application. After the spray coating has been dried, the plants are dusted with spores of Blumeria graminis fsp. hordei. The plants are placed in the greenhouse at a temperature of approximately 18° C. and a relative atmospheric humidity of approximately 80% to promote the development of mildew pustules.

[8] = test system: Fusarium culmorum; assay: Fusarium culmorum-test (wheat)/preventive; type: in vivo; conditions: 500 ppm of active ingredient, preventive, evaluated 5 days after inoculation
Experimental: Solvent: 49 parts by weight of N,N-dimethylacetamide
Emulsifier: 1 part by weight of alkylaryl polyglycol ether
To produce a suitable preparation of active compound, 1 part by weight of active compound or active compound combination is mixed with the stated amounts of solvent and emulsifier, and the concentrate is diluted with water to the desired concentration.
To test for preventive activity, young plants are sprayed with the preparation of active compound or active compound combination at the stated rate of application. After the spray coating has been dried, the plants are slightly injured by using a sandblast and afterwards they are sprayed with a conidia suspension of Fusarium culmorum.
The plants are placed in the greenhouse under a translucent incubation cabinet at a temperature of approximately 22° C. and a relative atmospheric humidity of approximately 100%.
The test is evaluated 5 days after the inoculation. 0% means an efficacy which corresponds to that of the untreated control, while an efficacy of 100% means that no disease is observed.

[9] = test system: Fusarium graminearum; type: in vivo; conditions: 500 ppm of active ingredient; barley, preventive; evaluated 5 days after inoculation
[10] = test system: Fusarium nivale (var. majus); assay: Fusarium nivale (var. majus)-test (wheat)/preventive; type: in vivo; conditions: 500 ppm of active ingredient, preventive, evaluated 5 days after inoculation
Experimental: as §2, with “slightly injured by using a sandblast and afterwards they are sprayed” for “dusted”, “a conidia suspension” for “spores”, “Fusarium nivale (var. majus).” for “Blumeria graminis fsp. hordei. The plants are placed in the greenhouse at a temperature of approximately 18° C. and a relative atmospheric humidity of approximately 80% to promote the development of mildew pustules.”

[11] = test system: Leptosphaeria nodorum; assay: Leptosphaeria nodorum test (wheat)/preventive; type: in vivo; conditions: 500 ppm of active ingredient, preventive, evaluated 8 days after inoculation
Experimental: as §2, with “sprayed” for “dusted”, “a spore suspension” for “spores”, “Leptosphaeria nodorum. […]” for “Blumeria graminis fsp. hordei.”, “22°” for “18°”, “80%.” for “80% to promote the development of mildew pustules.”

[12] = test system: Phakopsora pachyrhizi; assay: Phakopsora test (soybeans)/preventive; type: in vivo; conditions: preventive, evaluated 7 days after inoculation
[13] = test system: Podosphaera leucotricha; assay: Podosphaera test (apples)/preventive; type: in vivo; conditions: 100 ppm of active ingredient, preventive, evaluated 10 days after inoculation
Experimental: (§3) Solvent: 24.5 parts by weight of acetone • 24.5 parts by weight of dimethylacetamide Emulsifier: 1 part by weight of alkylaryl polyglycol ether To produce a suitable preparation of active compound, 1 part by weight of active compound is mixed with the stated amounts of solvent and emulsifier, and the concentrate is diluted with water to the desired concentration. To test for preventive activity, young plants are sprayed with the preparation of active compound at the stated rate of application. After the spray coating has dried on, the plants are inoculated with an aqueous spore suspension of the causal agent of apple mildew (Podosphaera leucotricha). The plants are then placed in a greenhouse at approximately 23° C. and a relative atmospheric humidity of approximately 70%.

[14] = test system: Pyricularia oryzae; type: in vivo; conditions: 500 ppm of active ingredient; rice, preventive; evaluated 8 days after inoculation
[15] = test system: Venturia inaequalis; assay: Venturia test (apples)/preventive; type: in vivo; conditions: 100 ppm of active ingredient, preventive, evaluated 10 days after inoculation
Experimental: as §3, with “After the spray coating has dried on, the plants are inoculated with an aqueous spore suspension of the causal agent of apple mildew (Podosphaera leucotricha).” left out, “21°” for “23°”, “90%.” for “70%.”

[16] = test system: Pyrenophora teres; assay: In vivo preventive test on Pyrenophora teres (net blotch on barley); conditions: barley plants, preventive spray, evaluated 14 days after inoculation
Experimental: as §1, with “barley” for “wheat”, “Pyrenophora teres” for “Puccinia recondita”

[17] = physchem; conditions: pH 2.7

Structure (SMILES) | Eff. % ([1]; 500 ppm of active ingredient) [%] | Eff. % ([2]; 500 ppm of active ingredient) [%] | Eff. % ([4]; 500 ppm of active ingredient) [%] | Eff. % ([5]; 500 ppm of active ingredient) [%] | Eff. % ([6]; 500 ppm of active ingredient) [%] | Eff. % [7] [%] | Eff. % [8] [%] | Eff. % [9] [%] | Eff. % [10] [%] | Eff. % [11] [%] | Eff. % ([12]; 100 ppm of active ingredient) [%] | Eff. % [14] [%] | Eff. % [15] [%] | LogP (pH 2.7) | Eff. % ([2]; 100 ppm of active ingredient) [%] | Eff. % ([5]; 100 ppm of active ingredient) [%] | Eff. % ([6]; 100 ppm of active ingredient) [%] | Eff. % ([1]; 100 ppm of active ingredient) [%] | Eff. % ([4]; 100 ppm of active ingredient) [%] | Eff. % ([16]; 500 ppm of active ingredient) [%] | also measured
CC(C)(C)C(O)(Cc1cccnc1Cl)Cn1cncn1 (stereo not shown) [Example I-3] | 100 | 97 | 100 | 100 | 100 | 100 | 100 | 100 | 100 | 100 | 100 | 75 | 100 | 1.94 |  |  |  |  |  |  | Eff. % [3]: 88%; Eff. % [13]: 100%; LogP (pH 7.8): 1.90
CC(C)(C)C(O)(Cc1ccncc1Cl)Cn1cncn1 (stereo not shown) [Example I-4, 1-(3-chloropyridin-4-yl)-3,3-dimethyl-2-(1H-1,2,4-triazol-1-ylmethyl)butan-2-ol] |  |  |  |  |  | 100 | 93 | 92 | 100 | 88 | 99 |  | 94 |  | 88 | 100 | 100 |  |  |  | Eff. % ([16]; 100 ppm of active ingredient): 83%; chromatographic logP ([17]; reversed phase HPLC columns): 1.74
CCC(C)(C)C(O)(Cc1ccncc1Cl)Cn1cncn1 (stereo not shown) [Example I-5] |  |  |  |  |  | 100 | 100 | 100 | 100 | 100 |  | 93 |  | 2.13^[a] | 90 | 100 | 100 | 89 | 97 |  | Eff. % ([16]; 100 ppm of active ingredient): 83%
CC(C)(C)C(O)(Cc1ccncc1F)Cn1cncn1 (stereo not shown) [Example I-6] |  |  |  |  |  | 100 | 100 | 100 | 100 | 100 | 99 | 94 | 96 | 1.41^[a] | 88 | 100 | 100 | 100 | 98 |  | 
CCC(C)(C)C(O)(Cc1ccncc1F)Cn1cncn1 (stereo not shown) [Example I-7] |  |  |  |  |  | 100 | 100 | 100 | 100 | 100 |  | 89 |  |  | 81 | 100 | 100 | 97 | 81 |  | LogP (method [a]: LC-MS at pH 2.7, 0.1% formic acid in water / acetonitrile gradient): 1.73^[a]
CC(C)(C)C(O)(Cc1ccnc(Cl)c1F)Cn1cncn1 (stereo not shown) [Example I-27] | 100 | 98 | 97 | 100 | 100 | 100 | 100 | 100 | 100 | 88 |  |  |  | 2.16^[a] |  |  |  |  |  | 97 | Eff. % ([12]; 10 ppm of active ingredient): 75%
CC(C)(C)C(O)(Cc1cc(F)ncc1Cl)Cn1cncn1 (stereo not shown) [Example I-29] | 100 | 100 | 100 | 100 | 100 | 100 | 100 | 100 | 100 | 100 |  | 71 |  | 2.39^[a] |  |  |  |  |  | 93 | Eff. % ([12]; 10 ppm of active ingredient): 78%
OC(Cc1ccncc1Cl)(CC1CC1)Cn1cncn1 (stereo not shown) [Example I-30] |  | 94 | 100 | 100 | 100 | 100 |  |  | 100 | 88 |  |  |  | 1.43^[a] |  |  |  |  |  | 71 | 
CC(C)(C)C(=O)Cc1cccnc1Cl [Example V-4, 1-(2-chloropyridin-3-yl)-3,3-dimethylbutan-2-one] |  |  |  |  |  |  |  |  |  |  |  |  |  |  |  |  |  |  |  |  | chromatographic logP [17]: 2.34
CC(C)(C)C1(Cc2ccncc2Cl)CO1 (stereo not shown) [XII-5, 4-[(2-tert-butyloxiran-2-yl)methyl]-3-chloropyridine] |  |  |  |  |  |  |  |  |  |  |  |  |  |  |  |  |  |  |  |  | chromatographic logP [17]: 2.8

From patent US9668481B2, “Triazole derivatives” (priority 2013, dated 2017)
